Residues, ends and D or L forms follow the SMILES beside them. *: point of attachment. Cam = NC(=O)C*
How the values were obtained:
[1] = system: Escherichia coli ML35p; format: cell-based; conditions: broth microdilution, 50% Mueller Hinton broth / 50% PBS, 18 h at 37 °C, median of 3–5 experiments in triplicates
Description: (§1) E. coli ML35p, Listeria monocytogenes EGD, methicillin-resistant Staphylococcus aureus (MRSA) ATCC 33591 were kindly provided by Prof. Robert Lehrer (University of California, Los Angeles, CA, USA); E. coli ATCC 25922, E. coli M15, Pseudomonas aeruginosa ATCC 27853, S. aureus ATCC 25923 were provided by Dr. Elena Ermolenko (Institute of Experimental Medicine, St-Petersburg, Russia); drug-resistant clinical isolates were provided by Prof. Gennadiy Afinogenov (Saint Petersburg State University, Russia); S. aureus 710A has been described previously. The following clinical isolates of bacteria were used: P.s aeruginosa resistant to aztreonam, ceftazidime, cefotaxime (obtained from the urine of a patient with cystitis), Acinetobacter baumannii resistant to meropenem (from an infected wound); Staphylococcus intermedius (from an infected wound caused by a dog bite) resistant to ciprofloxacin, cefuroxime, clindamycin, erythromycin, rifampin, gentamicin, benzylpenicillin, oxacillin.
(§2) This assay was applied to determine the MIC, according to the guidelines of the Clinical and Laboratory Standards Institute, using Mueller Hinton (MH) Broth. We prepared 2x stocks of peptides and serially diluted them in sterile PBS instead of Mueller Hinton Broth, so that the treatment of the bacteria with the peptides was carried out in a medium containing 50% of MH and 50% of PBS, as described. The overnight cultures of each strain were transferred to fresh MH media and further incubated to obtain a mid-logarithmic-growth-phase culture of bacteria. The absorbance of each bacterial suspension was measured at 620 nm, and bacteria were then diluted to approximately 2 × 10^5 CFU/mL. Then, 50 µL of the suspensions were mixed with 50 µL of the peptide dilutions in the wells of a microtiter plate (pre-treated for 1 h at 37 °C with 0.2% bovine serum albumin (BSA) in water, sterilized by filtration, to diminish the non-specific binding of the peptides to the plastic surfaces).

[2] = system: Staphylococcus aureus 710A; format: cell-based; conditions: 18 h
Description: as §1, §2

[3] = system: Listeria monocytogenes EGD; format: cell-based; conditions: 18 h
Description: as §1, §2

[4] = system: Pseudomonas aeruginosa ATCC 27853; format: cell-based; conditions: ATCC 27853, 18 h
Description: as §1, §2

[5] = system: E. coli ATCC 25922; format: cell-based, Escherichia coli; conditions: ATCC 25922, 18 h
Description: as §1, §2

[6] = system: E. coli M15; format: cell-based, Escherichia coli; conditions: M15, 18 h
Description: as §1, §2

[7] = system: MRSA ATCC 33591; format: cell-based, Staphylococcus aureus; conditions: ATCC 33591, 18 h
Description: as §1, §2

[8] = system: S. aureus c.i.; format: cell-based, Staphylococcus aureus; conditions: 18 h
Description: as §1, §2

[9] = system: S. aureus ATCC 25923; format: cell-based, Staphylococcus aureus; conditions: ATCC 25923, 18 h
Description: as §1, §2

[10] = system: set of Gram-negative and Gram-positive bacteria, including drug-resistant clinical isolates; format: cell-based; conditions: 12 strains; median MICs used; MIC > 16 µM taken as 32 µM
Method: To obtain a global assessment of the effect on antimicrobial activity, the geometric mean of the MIC (G-MIC) was calculated, and from this, the overall improvement or impoverishment with respect to arenicin-1. In general, inverting the symmetry or decreasing the charge had detrimental effects.
The overall activity against a set of tested bacterial strains was determined by way of the commonly used geometric mean of measured MIC values. […] At the same time, the geometric mean can still discriminate antimicrobial agents showing minor variations in activity; in other words, it has a better “resolution” than the median MIC (MIC50). Some mathematical basics for choosing the geometric mean for antimicrobial activity comparison are further discussed in the Supplementary Chapter S3.

[11] = system: Acinetobacter baumanii c.i.; format: cell-based, Acinetobacter baumannii; conditions: 18 h
Description: as §1, §2

[12] = system: P. aeruginosa c.i.; format: cell-based, Pseudomonas aeruginosa; conditions: 18 h
Description: as §1, §2

[13] = system: Staphylococcus intermidius; format: cell-based, Staphylococcus intermedius; conditions: 18 h
Description: as §1, §2

[14] = system: human erythroleukemia K-562 cells; format: cell-based; conditions: 24 h
Method: The standard MTT ((3-(4,5-Dimethylthiazol-2-yl)-2,5-diphenyltetrazolium bromide) test was used for the examination of the cytotoxic activity of AMPs towards human erithroleukemia cells K-562. The cells were purchased from Biolot (Saint Petersburg, Russia) and were grown in RPMI 1640 medium (Biolot, Saint Petersburg, Russia) supplemented with glutamine and 10% FCS. Before the experiment, the culturing medium was replaced with serum-free RPMI 1640. Serial dilutions of the peptides in RPMI were plated in sterile 96-well microplates, and the target cells were dispensed to the microplates (10^5 cells/well in RPMI 1640). The plates were incubated for 24 h at 37 °C under 5% CO2. Cell-free media and cells incubated without peptides served as controls. Four hours before the incubation ended, MTT in PBS (5 mg/mL) was added to each well. After the incubation was stopped by adding isopropanol/ 0.04 M HCl, the optical density was measured at 540 nm, subtracting the background absorbance at 690 nm. Toxicity was determined by nonlinear regression analysis of the corresponding dose–response curves using the Sigma Plot 11 program to calculate the IC50 values (the concentration of the test substance that reduced the OD540 capacity by 50%).

## CC(C)C[C@@H]1NC(=O)[C@H](C(C)C)NC(=O)CNC(=O)[C@H](CCCNC(=N)N)NC(=O)[C@H](C(C)C)NC(=O)[C@H](CCCNC(=N)N)NC(=O)[C@H](C(C)C)NC(=O)[C@H](Cc2ccc(O)cc2)NC(=O)[C@H](C)NC(=O)[C@H](Cc2ccc(O)cc2)NC(=O)[C@H](C(C)C)NC(=O)[C@@H](NC(=O)[C@H](Cc2c[nH]c3ccccc23)NC(=O)[C@@H](N)CCCNC(=N)N)CSSC[C@@H](C(=O)N[C@@H](Cc2c[nH]c3ccccc23)C(=O)O)NC(=O)[C@H](CCCNC(=N)N)NC(=O)[C@H](CCCNC(=N)N)NC(=O)[C@H](Cc2ccc(O)cc2)NC(=O)[C@H](CCCNC(=N)N)NC(=O)[C@H](C(C)C)NC1=O [AR, Arenicin-1] (HELM PEPTIDE1{R.W.C.V.Y.A.Y.V.R.V.R.G.V.L.V.R.Y.R.R.C.W}$PEPTIDE1,PEPTIDE1,3:R3-20:R3$$$V2.0)
[1]
  Minimal Inhibitory Concentrations (MIC): 1 to 2 µM
[2]
  Minimal Inhibitory Concentrations (MIC): 2 µM
[3]
  Minimal Inhibitory Concentrations (MIC): 1 to 2 µM
[4]
  Minimal Inhibitory Concentrations (MIC): 2 µM
[5]
  Minimal Inhibitory Concentrations (MIC): 2 µM
[6]
  Minimal Inhibitory Concentrations (MIC): 2 µM
[7]
  Minimal Inhibitory Concentrations (MIC): 4 µM
[8]
  Minimal Inhibitory Concentrations (MIC): 4 µM
[9]
  Minimal Inhibitory Concentrations (MIC): 2 µM
[10]
  G-MIC (geometric mean of all determined MICs): 2.7 µM
[11]
  Minimal Inhibitory Concentrations (MIC): 4 µM
[12]
  Minimal Inhibitory Concentrations (MIC): 4 µM
[13]
  Minimal Inhibitory Concentrations (MIC): 8 µM
[14]
  IC50: 17.9 µM

## CC(C)C[C@@H]1NC(=O)[C@H](C(C)C)NC(=O)CNC(=O)[C@H](CCCNC(=N)N)NC(=O)[C@H](C(C)C)NC(=O)[C@H](CCCNC(=N)N)NC(=O)[C@H](C(C)C)NC(=O)[C@H](Cc2ccc(O)cc2)NC(=O)[C@H](C)NC(=O)[C@H](Cc2ccc(O)cc2)NC(=O)[C@H](C(C)C)NC(=O)[C@@H](NC(=O)[C@H](Cc2ccccc2)NC(=O)[C@@H](N)CCCNC(=N)N)CSSC[C@@H](C(=O)N[C@@H](Cc2ccccc2)C(=O)O)NC(=O)[C@H](CCCNC(=N)N)NC(=O)[C@H](CCCNC(=N)N)NC(=O)[C@H](Cc2ccc(O)cc2)NC(=O)[C@H](CCCNC(=N)N)NC(=O)[C@H](C(C)C)NC1=O [AR-F] (HELM PEPTIDE1{R.F.C.V.Y.A.Y.V.R.V.R.G.V.L.V.R.Y.R.R.C.F}$PEPTIDE1,PEPTIDE1,3:R3-20:R3$$$V2.0; N-terminus and C-terminus assumed)
[1]
  Minimal Inhibitory Concentrations (MIC): 1 µM
[2]
  Minimal Inhibitory Concentrations (MIC): 2 µM
[3]
  Minimal Inhibitory Concentrations (MIC): 2 µM
[4]
  Minimal Inhibitory Concentrations (MIC): 1 µM
[5]
  Minimal Inhibitory Concentrations (MIC): 1 µM
[6]
  Minimal Inhibitory Concentrations (MIC): 1 µM
[7]
  Minimal Inhibitory Concentrations (MIC): 2 µM
[8]
  Minimal Inhibitory Concentrations (MIC): 4 µM
[9]
  Minimal Inhibitory Concentrations (MIC): 2 µM
[10]
  G-MIC (geometric mean of all determined MICs): 1.8 µM
[11]
  Minimal Inhibitory Concentrations (MIC): 2 µM
[12]
  Minimal Inhibitory Concentrations (MIC): 2 µM
[13]
  Minimal Inhibitory Concentrations (MIC): 4 µM
[14]
  IC50: 9.3 µM

## CC(C)C[C@@H]1NC(=O)[C@H](C(C)C)NC(=O)CNC(=O)[C@H](CCCNC(=N)N)NC(=O)[C@H](C(C)C)NC(=O)[C@H](CCCNC(=N)N)NC(=O)[C@H](C(C)C)NC(=O)[C@H](CCCNC(=N)N)NC(=O)[C@H](Cc2ccc(O)cc2)NC(=O)[C@H](CCCNC(=N)N)NC(=O)[C@H](CCCNC(=N)N)NC(=O)[C@@H](NC(=O)[C@H](Cc2c[nH]c3ccccc23)NC(=O)[C@@H](N)CCCNC(=N)N)CSSC[C@@H](C(=O)N[C@@H](Cc2c[nH]c3ccccc23)C(=O)O)NC(=O)[C@H](C(C)C)NC(=O)[C@H](Cc2ccc(O)cc2)NC(=O)[C@H](C)NC(=O)[C@H](Cc2ccc(O)cc2)NC(=O)[C@H](C(C)C)NC1=O [ARin-s] (HELM PEPTIDE1{R.W.C.R.R.Y.R.V.R.V.R.G.V.L.V.Y.A.Y.V.C.W}$PEPTIDE1,PEPTIDE1,3:R3-20:R3$$$V2.0; N-terminus assumed)
[1]
  Minimal Inhibitory Concentrations (MIC): 4 to 8 µM
[2]
  Minimal Inhibitory Concentrations (MIC): 16 µM
[3]
  Minimal Inhibitory Concentrations (MIC): 2 µM
[4]
  Minimal Inhibitory Concentrations (MIC): 4 to 8 µM
[5]
  Minimal Inhibitory Concentrations (MIC): 8 µM
[6]
  Minimal Inhibitory Concentrations (MIC): 8 µM
[7]
  Minimal Inhibitory Concentrations (MIC): >16 µM
[8]
  Minimal Inhibitory Concentrations (MIC): >16 µM
[9]
  Minimal Inhibitory Concentrations (MIC): 16 µM
[10]
  G-MIC (geometric mean of all determined MICs): ≥12.8 µM
[11]
  Minimal Inhibitory Concentrations (MIC): 16 µM
[12]
  Minimal Inhibitory Concentrations (MIC): >16 µM
[13]
  Minimal Inhibitory Concentrations (MIC): >16 µM
[14]
  IC50: 37.7 µM

## CC(C)C[C@H](NC(=O)[C@@H](NC(=O)CNC(=O)[C@H](CCCNC(=N)N)NC(=O)[C@@H](NC(=O)[C@H](CCCNC(=N)N)NC(=O)[C@@H](NC(=O)[C@H](Cc1ccc(O)cc1)NC(=O)[C@H](C)NC(=O)[C@H](Cc1ccc(O)cc1)NC(=O)[C@@H](NC(=O)[C@H](CSCC(N)=O)NC(=O)[C@H](Cc1c[nH]c2ccccc12)NC(=O)[C@@H](N)CCCNC(=N)N)C(C)C)C(C)C)C(C)C)C(C)C)C(=O)N[C@H](C(=O)N[C@@H](CCCNC(=N)N)C(=O)N[C@@H](Cc1ccc(O)cc1)C(=O)N[C@@H](CCCNC(=N)N)C(=O)N[C@@H](CCCNC(=N)N)C(=O)N[C@@H](CSCC(N)=O)C(=O)N[C@@H](Cc1c[nH]c2ccccc12)C(=O)O)C(C)C [ARlin] (H-RWC(Cam)VYAYVRVRGVLVRYRRC(Cam)W-OH; N-terminus assumed)
[1]
  Minimal Inhibitory Concentrations (MIC): 1 to 2 µM
[2]
  Minimal Inhibitory Concentrations (MIC): 2 µM
[3]
  Minimal Inhibitory Concentrations (MIC): 2 µM
[4]
  Minimal Inhibitory Concentrations (MIC): 2 µM
[5]
  Minimal Inhibitory Concentrations (MIC): 2 µM
[6]
  Minimal Inhibitory Concentrations (MIC): 2 µM
[7]
  Minimal Inhibitory Concentrations (MIC): 4 µM
[8]
  Minimal Inhibitory Concentrations (MIC): 8 to 16 µM
[9]
  Minimal Inhibitory Concentrations (MIC): 2 µM
[10]
  G-MIC (geometric mean of all determined MICs): 3.1 µM
[11]
  Minimal Inhibitory Concentrations (MIC): 4 µM
[12]
  Minimal Inhibitory Concentrations (MIC): 4 to 8 µM
[13]
  Minimal Inhibitory Concentrations (MIC): 8 µM
[14]
  IC50: > 40 µM

Reference: publication PMC6627698, “Redesigning Arenicin-1, an Antimicrobial Peptide from the Marine Polychaeta Arenicola marina, by Strand Rearrangement or Branching, Substitution of Specific Residues, and Backbone Linearization or Cyclization” (Marine Drugs, 2019)
